Legend:
mouse B16 melanocytes [1] = conditions: Example 3, preliminary cytotoxicity study on the cells
Description: Melanocytes (mouse line B16) were seeded in 96-well plates at 2000 cells per well in phenol red-free DMEM medium containing 10% fetal calf serum, 2 mM glutamine, 1 mM sodium pyruvate and 100 μg/ml normocin. The following day, the cells were treated with 0.1 μM of NDP-MSH to induce pigmentation. Under the test conditions, in the presence of NDP-MSH, kojic acid at 3 mM and vitamin C (ascorbyl glucoside) at 0.5% were used as positive controls for pigmentation inhibition, and the extracts to be evaluated were tested at several concentrations. All the conditions were tested in triplicate. The cells were incubated at 37° C., 5% CO2 for 72 h in the presence of the extracts and positive controls.

mouse B16 melanocytes [2] = assay: Inhibition of melanin production by NDP-MSH-stimulated B16 melanocytes (melanin assay, absorbance at 405 nm); assay type: cell-based; conditions: for inhibition of pigmentation (melanin production): Example 3, FIG. 3, B16 + NDP-MSH, extract 0.035%, hexylresorcinol 5 μg/mL, alone or combined, kojic acid and vitamin C positive controls; for efficacy as positive control for pigmentation inhibition (melanin production): Example 2, FIGS. 1 and 2, B16 + 0.1 μM NDP-MSH, 72 h, kojic acid 3 mM, vitamin C (ascorbyl glucoside) 0.5%, ***p<0.001, ****p<0.0001
Description: All the conditions were tested in triplicate.
For the melanin assay, the medium in each well was aspirated and the cells lyzed by adding 50 μl of 1M NaOH to the cell lawn. The plates were shaken for 30 minutes at room temperature, and the lyzate was then transferred to glass flasks and incubated overnight at 95° C. After incubation, the lyzates were centrifuged at 2000 rpm to remove the cell debris. The absorbance of the supernatant was read at 405 nm, reflecting the amount of melanin in each well, and the average of the three replicates was determined for each condition. A well of cells not treated with NDP-MSH was used as a control, and its OD value subtracted from all the OD values of the other wells. The percentage of melanin inhibition was then calculated according to the formula:
100−((melanin amount in test condition/melanin amount in untreated control)×100)
The significance of the results was evaluated using a one-way Anova test (for the distillation residue extract and the oily extract of flowering tops) or Student's t test (for kojic acid and vitamin C).
The results were compared with the effect obtained with the extract according to the invention alone and hexylresorcinol alone, used at the same doses.

SMILES | maximum non-cytotoxic dose (mouse B16 melanocytes [1]) [µg/mL] | inhibition of pigmentation (melanin production) (mouse B16 melanocytes [2]) | efficacy as positive control for pigmentation inhibition (melanin production) (mouse B16 melanocytes [2])
CCCCCCc1ccc(O)cc1O [hexylresorcinol, 4-hexyl-1,3-phenylenediol] | 10 | confirms the depigmenting efficacy | –
O=c1cc(CO)occ1O [kojic acid] | – | demonstrating the efficacy | demonstrating the efficacy
O=C1O[C@H]([C@@H](O)CO)C(O)=C1O[C@H]1O[C@H](CO)[C@@H](O)[C@H](O)[C@H]1O [vitamin C, ascorbyl glucoside] | – | demonstrating the efficacy | demonstrating the efficacy
